Measured values as given in paper PMC5063977 (The Journal of Biological Chemistry, 2016).

Experiments:
Assay type in all cases: cell-based
RAMP2-CLR (AM1 receptor) = target: T1, RAMP2-CLR (AM1 receptor) (Homo sapiens, UniProt O60895+Q16602); assay: cAMP accumulation, HEK-293S cells, RAMP2 + CLR; conditions: HEK293S, untreated, percentage of maximal cAMP with 100 μM forskolin in presence of PTX, mean ± S.E., n = 5
T1 construct: FLAG; expressed in transfected cells; host or cells: HEK-293 or HEK-293S cells, transient transfection, 1:1 RAMP:CLR
T1 sequence (Q16602 23-461): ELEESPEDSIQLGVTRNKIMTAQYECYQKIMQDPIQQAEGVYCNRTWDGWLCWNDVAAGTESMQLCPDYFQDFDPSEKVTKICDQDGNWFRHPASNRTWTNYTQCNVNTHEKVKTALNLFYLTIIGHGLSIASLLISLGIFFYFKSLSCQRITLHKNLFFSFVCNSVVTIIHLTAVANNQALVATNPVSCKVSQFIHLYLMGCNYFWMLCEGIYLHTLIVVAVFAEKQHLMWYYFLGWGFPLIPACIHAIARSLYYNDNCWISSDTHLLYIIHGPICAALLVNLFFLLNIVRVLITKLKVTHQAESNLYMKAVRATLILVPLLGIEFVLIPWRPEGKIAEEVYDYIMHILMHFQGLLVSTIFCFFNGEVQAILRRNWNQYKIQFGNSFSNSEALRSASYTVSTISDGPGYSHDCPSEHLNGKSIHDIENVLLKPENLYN
T1 sequence (O60895 43-175): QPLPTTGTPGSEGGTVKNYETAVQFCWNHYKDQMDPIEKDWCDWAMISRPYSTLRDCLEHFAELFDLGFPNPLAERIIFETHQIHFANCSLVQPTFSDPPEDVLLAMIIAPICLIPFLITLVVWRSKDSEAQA
Protocol: (§1) HEK-293 cells were transfected with FuGENE 6 (Roche Applied Science) in accordance with the manufacturer's instructions using a 1:3 (w:v) DNA:FuGENE ratio and a 1:1 ratio of RAMP to CLR. […] The transfected cell lines were grown for 24–48 h prior to assaying.
(§2) The transfected HEK-293 cells were washed in PBS, resuspended in stimulation buffer (PBS containing 0.1% BSA and 0.5 mM IBMX), and seeded at 2000 cells/well in 384-well white Optiplates. Ligands were added in the range of 1 pM to 1 mM, and cAMP accumulation was measured after 30 min of stimulation using a LANCE® cAMP detection kit (PerkinElmer Life Sciences). […] Plates were read using a Mithras LB 940 multimode microplate reader (Berthold Technologies). […] Values were converted to concentration using a cAMP standard curve performed in parallel.
Data analysis for cAMP assays was performed in GraphPad Prism 6.0f (San Diego, CA). […] These values were then used to quantify signaling bias as change in log (τ/Ka) relative to the natural cognate ligand for the respective receptor ([41]). […] Statistical differences were analyzed using one-way ANOVA or Student's t test as appropriate with post hoc Bonferroni's or Dunnett's multiple comparisons, and p < 0.05 was considered significant. […] To quantitate the ligand-dependent response in the yeast system, a strain lacking GPA1 (MMY11), grown in rich medium, was used as a standard ([72]). […]

RAMP3-CLR (AM2 receptor) [1] = target: T2, RAMP3-CLR (AM2 receptor) (Homo sapiens, UniProt O60896+Q16602); assay: S. cerevisiae growth assay, GPA1/Gαq chimera, RAMP3 + CLR; conditions: percentage of yeast strain MMY11 (lacking GPA1); 24-h; mean ± S.E., n = 6
T2 construct: FLAG; expressed in transfected cells; host or cells: HEK-293 or HEK-293S cells, transient transfection, 1:1 RAMP:CLR
T2 sequence (Q16602 23-461): as the sequence (Q16602 23-461) above
T2 sequence (O60896 24-148): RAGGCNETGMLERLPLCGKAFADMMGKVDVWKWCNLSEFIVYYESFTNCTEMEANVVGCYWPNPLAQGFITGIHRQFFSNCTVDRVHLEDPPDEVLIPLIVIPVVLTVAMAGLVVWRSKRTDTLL
Protocol: FIGURE 7. […] Reporter gene activity was determined following 24-h stimulation. All data are expressed as percentage of the maximum response observed in yeast strain MMY11 and are means ± S.E. of n individual data sets. D, Bar chart showing the efficacy of each ligand for each RAMP-CLR combination at the Gαq chimera determined via application of the operational model of receptor agonism (Ref. [34] and Table 1). Data were determined as statistically different from the cognate ligand for each receptor (***, p < 0.001; ****, p < 0.0001) using one-way ANOVA with Bonferroni's post-test. E, signaling bias plots were calculated as ΔΔ(τ/Ka) values on a logarithmic scale for each ligand and for each chimera G protein for the three individual RAMP-CLR complexes.
General yeast procedures were performed as described previously ([22], [24]). […] Receptor signaling was measured using the yeast growth assay as described previously ([24]). […] A fluorescein signal was detected as an increase in fluorescence (excitation wavelength = 485 nm, emission wavelength = 535 nm) as a measure of growth. Different concentrations of ligand (0.01 nM–100 μM) were assayed using 96-well plates, and fluorescence was detected using a Tecan Infinite M200 microplate reader (Tecan Ultra Evolution, Reading, UK) or a Mithras LB 940 microplate reader (Berthold Technologies, Harpenden, UK) for 20 h. […]

RAMP3-CLR (AM2 receptor) [2] = target: T2, RAMP3-CLR (AM2 receptor); assay: cAMP accumulation, HEK-293 cells, RAMP3 + CLR; conditions: mean ± S.E.
Protocol: as §1, §2
Data analysis for cAMP assays was performed in GraphPad Prism 6.0f (San Diego, CA). Data were fitted to obtain concentration-response curves using either the three-parameter logistic equation (for pEC50 values) or the operational model for partial agonism ([34]) to obtain values of efficacy (log τ) and the equilibrium dissociation constant (log Ka). These values were then used to quantify signaling bias as change in log (τ/Ka) relative to the natural cognate ligand for the respective receptor ([41]). […] Statistical differences were analyzed using one-way ANOVA or Student's t test as appropriate with post hoc Bonferroni's or Dunnett's multiple comparisons, and p < 0.05 was considered significant. […] For RT-PCR, normalization to the internal standard GAPDH was performed to reduce variance and enable a comparison between different cell lines. To quantitate the ligand-dependent response in the yeast system, a strain lacking GPA1 (MMY11), grown in rich medium, was used as a standard ([72]). As GPA1 is not present in this strain, the Gβγ subunits are unregulated and free to signal, allowing us to determine the maximal response of our system. […] For the mammalian cell-based assays, data analysis was carried out as for the yeast curves. […]

Compound | Emax (RAMP2-CLR (AM1 receptor)) [%] | Emax (RAMP3-CLR (AM2 receptor) [1]) [%] | Emax (RAMP3-CLR (AM2 receptor) [2]; HEK293, PTX treated (200 ng/ml, 16 h), percentage of maximal cAMP with 100 μM forskolin in presence of PTX, n = 7 (Table 3)) [%] | Emax (RAMP3-CLR (AM2 receptor) [2]; HEK293, percentage of maximal cAMP with 100 μM forskolin, HEK-293, 30 min, n = 9 (Table 2)) [%] | Emax (RAMP3-CLR (AM2 receptor) [2]; HEK293, untreated, percentage of maximal cAMP with 100 μM forskolin in presence of PTX, n = 8 (Table 3)) [%]
CSCC[C@H](NC(=O)[C@H](CC(C)C)NC(=O)[C@H](CCC(N)=O)NC(=O)[C@H](Cc1c[nH]c2ccccc12)NC(=O)[C@H](CC(C)C)NC(=O)[C@H](CCCNC(=N)N)NC(=O)[C@H](Cc1c[nH]cn1)NC(=O)[C@H](CO)NC(=O)[C@H](CC(C)C)NC(=O)[C@H](CC(N)=O)NC(=O)[C@H](CCC(N)=O)NC(=O)[C@@H](NC(=O)[C@H](CCC(N)=O)NC(=O)[C@@H]1CSSC[C@H](NC(=O)CNC(=O)[C@@H](NC(=O)[C@H](CCCNC(=N)N)NC(=O)[C@H](CC(C)C)NC(=O)[C@H](CC(C)C)NC(=O)[C@H](CCC(N)=O)NC(=O)[C@H](C)NC(=O)[C@H](CCC(N)=O)NC(=O)[C@@H](N)[C@@H](C)O)C(C)C)C(=O)N[C@@H](C(C)C)C(=O)N[C@@H](CC(C)C)C(=O)NCC(=O)N[C@@H]([C@@H](C)O)C(=O)N1)C(C)C)C(=O)NCC(=O)N1CCC[C@H]1C(=O)N[C@@H](C)C(=O)NCC(=O)N[C@@H](CCCNC(=N)N)C(=O)N[C@@H](CCC(N)=O)C(=O)N[C@@H](CC(=O)O)C(=O)N[C@@H](CO)C(=O)N[C@@H](C)C(=O)N1CCC[C@H]1C(=O)N[C@H](C(=O)N[C@@H](CC(=O)O)C(=O)N1CCC[C@H]1C(=O)N[C@@H](CO)C(=O)N[C@@H](CO)C(=O)N1CCC[C@H]1C(=O)N[C@@H](Cc1c[nH]cn1)C(=O)N[C@@H](CO)C(=O)N[C@@H](Cc1ccc(O)cc1)C(N)=O)C(C)C [AM2, adrenomedullin 2] | 40.3 ± 1.5 |  |  |  | 
CC[C@H](C)[C@H](NC(=O)[C@H](CCC(N)=O)NC(=O)[C@H](Cc1c[nH]cn1)NC(=O)[C@H](C)NC(=O)[C@H](CC(C)C)NC(=O)[C@H](CCCCN)NC(=O)[C@H](CCC(N)=O)NC(=O)[C@@H](NC(=O)[C@@H](NC(=O)[C@@H]1CSSC[C@H](NC(=O)CNC(=O)[C@H](Cc2ccccc2)NC(=O)[C@H](CO)NC(=O)[C@H](CCCNC(=N)N)NC(=O)[C@H](CC(C)C)NC(=O)CNC(=O)[C@H](CCC(N)=O)NC(=O)[C@H](Cc2ccccc2)NC(=O)[C@H](CC(N)=O)NC(=O)[C@H](CC(N)=O)NC(=O)[C@H](CCSC)NC(=O)[C@H](CO)NC(=O)[C@H](CCC(N)=O)NC(=O)[C@H](CCCNC(=N)N)NC(=O)[C@@H](N)Cc2ccc(O)cc2)C(=O)N[C@@H](CCCNC(=N)N)C(=O)N[C@@H](Cc2ccccc2)C(=O)NCC(=O)N[C@@H]([C@@H](C)O)C(=O)N1)[C@@H](C)O)C(C)C)C(=O)N[C@@H](Cc1ccc(O)cc1)C(=O)N[C@@H](CCC(N)=O)C(=O)N[C@@H](Cc1ccccc1)C(=O)N[C@H](C(=O)N[C@@H](CC(=O)O)C(=O)N[C@@H](CCCCN)C(=O)N[C@@H](CC(=O)O)C(=O)N[C@@H](CCCCN)C(=O)N[C@@H](CC(=O)O)C(=O)N[C@@H](CC(N)=O)C(=O)N[C@H](C(=O)N[C@@H](C)C(=O)N1CCC[C@H]1C(=O)N[C@@H](CCCNC(=N)N)C(=O)N[C@@H](CO)C(=O)N[C@@H](CCCCN)C(=O)N[C@H](C(=O)N[C@@H](CO)C(=O)N1CCC[C@H]1C(=O)N[C@@H](CCC(N)=O)C(=O)NCC(=O)N[C@@H](Cc1ccc(O)cc1)C(N)=O)[C@@H](C)CC)C(C)C)[C@@H](C)O [AM, adrenomedullin] |  | 25.6 ± 2 | 36 ± 2.2 | 32.1 ± 1.6 | 32 ± 1.5
